{"source": "patent US20230146455A1", "about": "“TREATMENT OF INFLAMMATORY DISEASES WITH PEPTIDES AND PHARMACEUTICAL COMPOSITIONS” (Yuyu Pharma, Inc., priority 2020, published 2023)", "tested_on": "GM-CSF", "assay": "Example 9 Luminex, LPS hPBMCs: GM-CSF", "type": "cell-based, human", "description": "Treatment Human PBMCs were pretreated with YY-101, YDE-011 and YDE-043 or reference compound; Xiidra® at various concentration (ranging from 1 nM to 100 uM) for 2 h before stimulation. An equal volume of 0.5% DMSO was used as a vehicle control. Then, the cells were treated with LPS at 5 ug/ml. The supernatants from treated cells were harvested at 24 h and placed in a 96 well for Luminex cytokine & chemokine profiling using a Luminex 200 multiplex assay (Luminex; R&D system, USA).\nThe main study arm with triplicate wells per group in a 24-well plate: • 1. Blank • 2. PBMC: 0.5% DMSO • 3. PBMC+LPS (5 ug/ml) • 4. PBMC+YY-101 100 uM • 5. PBMC+YY-101 10 uM • 6. PBMC+YY-101 1 uM • 7. PBMC+YY-101 0.1 uM • 8. PBMC+YY-101 0.01 uM • 9. PBMC+LPS (5 ug/ml)+Xiidra®100 uM • 10. PBMC+LPS (5 ug/ml)+Xiidra® 10 uM • 11. PBMC+LPS (5 ug/ml)+Xiidra® 1 uM • 12. PBMC+LPS (5 ug/ml)+Xiidra®0.1 uM • 13. PBMC+LPS (5 ug/ml)+Xiidra®0.01 uM • 14. PBMC+LPS (5 ug/ml)+Xiidra®0.001 uM • 15. PBMC+LPS (5 ug/ml)+YY-101 100 uM • 16. PBMC+LPS (5 ug/ml)+YY-101 10 uM • 17. PBMC+LPS (5 ug/ml)+YY-101 1 uM • 18. PBMC+LPS (5 ug/ml)+YY-101 0.1 uM • 19. PBMC+LPS (5 ug/ml)+YY-101 0.01 uM • 20. PBMC+LPS (5 ug/ml)+YY-101 0.001 uM • 21. PBMC+LPS (5 ug/ml)+YDE-011 100 uM • 22. PBMC+LPS (5 ug/ml)+YDE-011 10 uM • 23. PBMC+LPS (5 ug/ml)+YDE-011 1 uM • 24. PBMC+LPS (5 ug/ml)+YDE-011 0.1 uM • 25. PBMC+LPS (5 ug/ml)+YDE-011 0.01 uM • 26. PBMC+LPS (5 ug/ml)+YDE-011 0.001 uM • 27. PBMC+LPS (5 ug/ml)+YDE-043 100 uM • 28. PBMC+LPS (5 ug/ml)+YDE-043 10 uM • 29. PBMC+LPS (5 ug/ml)+YDE-043 1 uM • 30. PBMC+LPS (5 ug/ml)+YDE-043 0.1 uM • 31. PBMC+LPS (5 ug/ml)+YDE-043 0.01 uM • 32. PBMC+LPS (5 ug/ml)+YDE-043 0.001 uM\nMultiplex assay was used to measure 30 cytokines and chemokines. The 1:2, 1:10 and 1:200 diluted cell supernatant and serial dilution of the standard were dispensed into a 96 well plate at 50 ul/well. Then, the pre-mixed cocktail of antibody-coated magnetic beads was dispensed at 50 ul/well and incubated at room temperature for 2 h in a horizontal orbital microplate shaker at 800±500 rpm. The beads were washed using a magnetic device to prevent loss. The biotin-antibody was dispensed in 50 ul of each well and incubated at room temperature for 1 h in a shaker at 800±500 rpm. After washing, streptavidin-PE was added at 50 ul/well and incubated at room temperature for 30 min in a shaker under the same conditions. Finally, after washing, wash buffer (100 ul/well) was added to the plate and incubated in a shaker for 2 min. The Luminex™ 200 setting were set according to the manufacturer's protocol. The data was calculated with a standard five-parameter logistic nonlinear regression analysis of the data (xPonent software 4.2, USA). The levels of cytokine/chemokine are normalized to the live cell counts (1×10^5 cells/mL) and presented as concentrations per mL (pg/mL or ng/mL).", "key": {"[1]": {"details": "PBMC + LPS(5 ug/ml) + test article 0.001 uM, Mean"}, "[2]": {"details": "PBMC + LPS(5 ug/ml) + test article 0.001 uM, single replicates"}, "[3]": {"details": "PBMC + LPS(5 ug/ml) + test article 0.01 uM, Mean"}, "[4]": {"details": "PBMC + LPS(5 ug/ml) + test article 0.01 uM, single replicates"}, "[5]": {"details": "PBMC + LPS(5 ug/ml) + test article 0.1 uM, Mean"}, "[6]": {"details": "PBMC + LPS(5 ug/ml) + test article 0.1 uM, single replicates"}, "[7]": {"details": "PBMC + LPS(5 ug/ml) + test article 1 uM, Mean"}, "[8]": {"details": "PBMC + LPS(5 ug/ml) + test article 1 uM, single replicates"}, "[9]": {"details": "PBMC + LPS(5 ug/ml) + test article 10 uM, Mean"}, "[10]": {"details": "PBMC + LPS(5 ug/ml) + test article 10 uM, single replicates"}, "[11]": {"details": "PBMC + LPS(5 ug/ml) + test article 100 uM, Mean"}, "[12]": {"details": "PBMC + LPS(5 ug/ml) + test article 100 uM, single replicates"}, "[13]": {"details": "PBMC + test article 0.01 uM, no LPS, Mean"}, "[14]": {"details": "PBMC + test article 0.01 uM, no LPS, single replicates"}, "[15]": {"details": "PBMC + test article 0.1 uM, no LPS, Mean"}, "[16]": {"details": "PBMC + test article 0.1 uM, no LPS, single replicates"}, "[17]": {"details": "PBMC + test article 1 uM, no LPS, Mean"}, "[18]": {"details": "PBMC + test article 1 uM, no LPS, single replicates"}, "[19]": {"details": "PBMC + test article 10 uM, no LPS, Mean"}, "[20]": {"details": "PBMC + test article 10 uM, no LPS, single replicates"}, "[21]": {"details": "PBMC + test article 100 uM, no LPS, Mean"}, "[22]": {"details": "PBMC + test article 100 uM, no LPS, single replicates"}}, "note": "Where “and” joins values, the source holds several entries; their conditions need not be identical. Equal values may be shown once. Where a SMILES comes first, the peptide text is derived from it. [ ]: non-standard residue; d: D form. Hyp = O=C(O)[C@@H]1C[C@@H](O)CN1", "data": [{"smiles": "CC(C)C[C@H](NC(=O)CNC(=O)[C@H](CC(=O)O)NC(=O)[C@H](CCC(N)=O)NC(=O)CNC(=O)[C@@H]1C[C@@H](O)CN1)C(=O)N[C@@H](C)C(=O)NCC(=O)N1CCC[C@H]1C(=O)N[C@@H](CCCCN)C(=O)O", "note": "[YY-101] (H-[Hyp]GQDGLAGPK-OH; N-terminus and C-terminus assumed)", "values": [{"measurement": "GM-CSF Concentration", "setting": "[1]", "result": 159.8, "unit": "pg/mL"}, {"measurement": "GM-CSF conc/live cell", "setting": "[1]", "result": 24.7, "unit": "pg/10^5"}, {"measurement": "GM-CSF Concentration", "setting": "[2]", "result": "138.9 pg/mL and 160.4 pg/mL and 180.1 pg/mL"}, {"measurement": "GM-CSF conc/live cell", "setting": "[2]", "result": "24.4 pg/10^5 and 22.6 pg/10^5 and 27.3 pg/10^5"}, {"measurement": "GM-CSF Concentration", "setting": "[3]", "result": 159.0, "unit": "pg/mL"}, {"measurement": "GM-CSF conc/live cell", "setting": "[3]", "result": 25.8, "unit": "pg/10^5"}, {"measurement": "GM-CSF Concentration", "setting": "[4]", "result": "164.4 pg/mL and 159.6 pg/mL and 153.1 pg/mL"}, {"measurement": "GM-CSF conc/live cell", "setting": "[4]", "result": "25.7 pg/10^5 and 26.6 pg/10^5 and 25.1 pg/10^5"}, {"measurement": "GM-CSF Concentration", "setting": "[5]", "result": 139.7, "unit": "pg/mL"}, {"measurement": "GM-CSF conc/live cell", "setting": "[5]", "result": 23.9, "unit": "pg/10^5"}, {"measurement": "GM-CSF Concentration", "setting": "[6]", "result": "150.7 pg/mL and 135.6 pg/mL and 132.7 pg/mL"}, {"measurement": "GM-CSF conc/live cell", "setting": "[6]", "result": "24.3 pg/10^5 and 26.1 pg/10^5 and 21.4 pg/10^5"}, {"measurement": "GM-CSF Concentration", "setting": "[7]", "result": 141.2, "unit": "pg/mL"}, {"measurement": "GM-CSF conc/live cell", "setting": "[7]", "result": 21.7, "unit": "pg/10^5"}, {"measurement": "GM-CSF Concentration", "setting": "[8]", "result": "137.2 pg/mL and 133.1 pg/mL and 153.1 pg/mL"}, {"measurement": "GM-CSF conc/live cell", "setting": "[8]", "result": "21.8 pg/10^5 and 18.8 pg/10^5 and 24.7 pg/10^5"}, {"measurement": "GM-CSF Concentration", "setting": "[9]", "result": 148.1, "unit": "pg/mL"}, {"measurement": "GM-CSF conc/live cell", "setting": "[9]", "result": 22.5, "unit": "pg/10^5"}, {"measurement": "GM-CSF Concentration", "setting": "[10]", "result": "153.1 pg/mL and 143.8 pg/mL and 147.4 pg/mL"}, {"measurement": "GM-CSF conc/live cell", "setting": "[10]", "result": "25.5 pg/10^5 and 22.5 pg/10^5 and 19.4 pg/10^5"}, {"measurement": "GM-CSF Concentration", "setting": "[11]", "result": 224.0, "unit": "pg/mL"}, {"measurement": "GM-CSF conc/live cell", "setting": "[11]", "result": 38.7, "unit": "pg/10^5"}, {"measurement": "GM-CSF Concentration", "setting": "[12]", "result": "239.6 pg/ml and 216.3 pg/ml (2×)"}, {"measurement": "GM-CSF conc/live cell", "setting": "[12]", "result": "38.0 pg/10^5 and 34.9 pg/10^5 and 43.3 pg/10^5"}, {"measurement": "GM-CSF Concentration", "setting": "[13]", "result": 5.8, "unit": "pg/mL"}, {"measurement": "GM-CSF conc/live cell", "setting": "[13]", "result": 1.2, "unit": "pg/10^5"}, {"measurement": "GM-CSF Concentration", "setting": "[14]", "result": "5.3 pg/mL and 6.3 pg/mL"}, {"measurement": "GM-CSF conc/live cell", "setting": "[14]", "result": "1.0 pg/10^5 and 1.3 pg/10^5"}, {"measurement": "GM-CSF Concentration", "setting": "[15]", "result": 4.4, "unit": "pg/mL"}, {"measurement": "GM-CSF conc/live cell", "setting": "[15]", "result": 0.8, "unit": "pg/10^5"}, {"measurement": "GM-CSF Concentration", "setting": "[16]", "result": "1.9 pg/mL and 6.9 pg/mL"}, {"measurement": "GM-CSF conc/live cell", "setting": "[16]", "result": "0.4 pg/10^5 and 1.2 pg/10^5"}, {"measurement": "GM-CSF Concentration", "setting": "[17]", "result": 4.4, "unit": "pg/mL"}, {"measurement": "GM-CSF conc/live cell", "setting": "[17]", "result": 0.8, "unit": "pg/10^5"}, {"measurement": "GM-CSF Concentration", "setting": "[18]", "result": "4.7 pg/mL and 4.2 pg/mL"}, {"measurement": "GM-CSF conc/live cell", "setting": "[18]", "result": "0.9 pg/10^5 and 0.8 pg/10^5"}, {"measurement": "GM-CSF Concentration", "setting": "[19]", "result": 23.5, "unit": "pg/mL"}, {"measurement": "GM-CSF conc/live cell", "setting": "[19]", "result": 3.7, "unit": "pg/10^5"}, {"measurement": "GM-CSF Concentration", "setting": "[20]", "result": "33.5 pg/mL and 13.5 pg/mL"}, {"measurement": "GM-CSF conc/live cell", "setting": "[20]", "result": "5.2 pg/10^5 and 2.2 pg/10^5"}, {"measurement": "GM-CSF Concentration", "setting": "[21]", "result": 11.0, "unit": "pg/mL"}, {"measurement": "GM-CSF conc/live cell", "setting": "[21]", "result": 1.7, "unit": "pg/10^5"}, {"measurement": "GM-CSF Concentration", "setting": "[22]", "result": "14.5 pg/mL and 7.4 pg/mL"}, {"measurement": "GM-CSF conc/live cell", "setting": "[22]", "result": "2.3 pg/10^5 and 1.1 pg/10^5"}, {"measurement": "LPS-induced GM-CSF levels (in words)", "setting": "at 100.iM, LPS 5 ug/mL 24 hrs", "result": "further increased"}]}]}
